The record followed here is patent publication US20240208970A1, “SUBSTITUTED HYDANTOIN COMPOUNDS, METHODS FOR PREPARATION THEREOF AND USE THEREOF IN THE TREATMENT AND/OR PREVENTION OF A CORONA VIRUS DISEASE” (priority 2021, published 2024).

SMILES strings stand for the structures.

One assay has as its target M^pro (Severe acute respiratory syndrome coronavirus 2 (2019-nCoV) (SARS-CoV-2), UniProt P0DTD1). It counts as binding. The settings on record: steady-state analysis, 25° C.
Assay [1] has as its target SARS-CoV-2 M^pro protease (Severe acute respiratory syndrome coronavirus 2 (2019-nCoV) (SARS-CoV-2), UniProt P0DTD1). Description: biochemical. In kind it is biochemical. To be noted: M^pro 75 nM, substrate 10 μM.

On to `O=C1NC2(CC(c3ccccc3Cl)C2)C(=O)N1c1cncc2c(F)c(F)c(F)cc12` (single isomer, unassigned) [Compound 59, 2-(2-chlorophenyl)-7-(6,7,8-trifluoroisoquinolin-4-yl)-5,7-diazaspiro[3.4]octane-6,8-dione], for which, on M^pro, the affinity, expressed as Kd, was 0.25 µM. Further, half-maximal inhibition in assay [1] (Tables 5B-5E) (IC50) required 6.6 µM.

At M^pro, `O=C1NC2(CC(c3ccccc3Cl)C2)C(=O)N1c1cncc2c(F)c(F)c(F)cc12` (single isomer, unassigned) [Compound 60, 2-(2-chlorophenyl)-7-(6,7,8-trifluoroisoquinolin-4-yl)-5,7-diazaspiro[3.4]octane-6,8-dione] came in with a Kd of 0.364 µM. This molecule also yielded an IC50 in assay [1] (Tables 5B-5E) of 1.37 µM.

Molecule `O=C1NC2(CC(C3CCC3)C2)C(=O)N1c1cncc(F)c1` (stereo not shown) [Compound 13, 2-cyclobutyl-7-(5-fluoropyridin-3-yl)-5,7-diazaspiro[3.4]octane-6,8-dione] came in with a Kd at M^pro of 66 ± 14 µM. In assay [1] (Table 5A), this molecule gave an IC50 of 6.7 µM.

Turning to `O=C1NC2(CC(c3ccccc3Cl)C2)C(=O)N1c1cncc2cccnc12` (stereo not shown) [Compound 50, 2-(2-chlorophenyl)-7-(1,6-naphthyridin-8-yl)-5,7-diazaspiro[3.4]octane-6,8-dione], the Kd on M^pro was 0.028 µM. Further, inhibition in assay [1] (Tables 5B-5E) was half-maximal at 0.105 µM (IC50).

`O=C1NC2(CC(c3ccccc3Cl)C2)C(=O)N1c1cncc2cnccc12` (stereo not shown) [Compound 51, 2-(2-chlorophenyl)-7-(2,7-naphthyridin-4-yl)-5,7-diazaspiro[3.4]octane-6,8-dione]: the equilibrium dissociation constant (Kd) on M^pro turned out to be 0.029 µM. In assay [1] (Tables 5B-5E), this molecule returned an IC50 of 0.141 µM.

As to `O=C1NC2(CC(c3ccccc3Cl)C2)C(=O)N1c1cncc2nccnc12` (stereo not shown) [Compound 52, 2-(2-chlorophenyl)-7-(pyrido[3,4-b]pyrazin-8-yl)-5,7-diazaspiro[3.4]octane-6,8-dione], the Kd at M^pro came out at 0.134 µM. The molecule further displayed an IC50 in assay [1] (Tables 5B-5E) of 0.394 µM.

In turn, `O=C1NC2(CC(c3ccccc3Cl)C2)C(=O)N1c1cncc2cccc(F)c12` (stereo not shown) [Compound 53, 2-(2-chlorophenyl)-7-(5-fluoroisoquinolin-4-yl)-5,7-diazaspiro[3.4]octane-6,8-dione] gave a Kd at M^pro of 0.042 µM. The same molecule gave an IC50 in assay [1] (Tables 5B-5E) of 0.253 µM.

Molecule `O=C1NC2(CC(c3ccccc3Cl)C2)C(=O)N1c1cccnc1F` (stereo not shown) [Compound 62, 2-(2-chlorophenyl)-7-(2-fluoropyridin-3-yl)-5,7-diazaspiro[3.4]octane-6,8-dione] registered a Kd at M^pro of 0.036 µM. Also, half-maximal inhibition in assay [1] (Tables 5B-5E) (IC50) required 0.201 µM.

In the case of `CC(C)c1ccncc1N1C(=O)NC2(CC(c3ccccc3Cl)C2)C1=O` (stereo not shown) [Compound 63, 2-(2-chlorophenyl)-7-(4-isopropylpyridin-3-yl)-5,7-diazaspiro[3.4]octane-6,8-dione], binding on M^pro was characterised by a dissociation constant (Kd) of 0.089 µM. This lies in the double-digit nanomolar range.

With `CN(C)c1cncc(N2C(=O)NC3(CC(c4ccccc4Cl)C3)C2=O)c1` (stereo not shown) [Compound 65, 2-(2-chlorophenyl)-7-(5-(dimethylamino)pyridin-3-yl)-5,7-diazaspiro[3.4]octane-6,8-dione], the Kd at M^pro came out at 0.79 µM.

`O=C1NC2(CC(c3ccccc3Cl)C2)C(=O)N1c1cncnc1` (stereo not shown) [Compound 66, 2-(2-chlorophenyl)-7-(pyrimidin-5-yl)-5,7-diazaspiro[3.4]octane-6,8-dione] came in with a Kd at M^pro of 0.691 µM.
